The target in one series is T1, Wee-1 kinase (Homo sapiens, UniProt P30291).
T1 construct: purchased Invitrogen PV3817
The experiment in a line: Measurement of Wee-1 kinase activity (ADP-Glo luminescent kit). The series is classed as biochemical. The method in brief:
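Activated Wee-1 was pre-incubated 30 min at RT with compound in 40 mM Tris-HCl, 20 mM MgCl2, 0.1 mg/mL BSA and 2 mM DTT. The reaction was started with an aliquot of 2.0 μg/mL poly(Lys,Tyr 4:1) plus 30 μM ATP and run 1 h at RT. ADP-Glo luminescence gave IC50 by non-linear fit.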

Series [1] relates to phospho-cdc2 (Tyr15) in HT-29 cells. The experiment in a line: Effect on Cdc2 phosphorylation at Tyr15, Cell-Based ELISA Base Kit (Method 3). The conditions noted are these: Homo sapiens, HT-29, 8 h, eight hours incubation, normalized to total cdc2, read-out: HT29 pCDC2 method 3. The method in brief:
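HT-29 cells were treated with compounds for 8 h at 37 °C, then fixed in 4% formaldehyde. Phospho-cdc2 (Tyr15) and total cdc2 were read by dual-fluorogenic cell-based ELISA at 600/450 nm. Phospho signal was normalized to total cdc2 and expressed as % of DMSO control, and EC50 came from non-linear regression.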
(In general: ELISA stands for enzyme-linked immunosorbent assay.)

The nature of series [2]: CLint estimates using human liver microsomes (Method 4). It is filed as in vitro ADME. The conditions noted are these: pH 7.4, 1 μM compound, read-out: Mics - CLint (HLM CLint). In outline: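 Compound at 1 μM (0.1% DMSO) incubated with human liver microsomes (0.5 mg protein/mL) in 0.1 M phosphate pH 7.4 at 37 °C, started with 1 mM NADPH. Samples taken 2–50 min, quenched in methanol, measured by LC/MS/MS (MRM). Half-life and CLint derived from the slope of ln peak area versus time.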

These results are taken from US9850247B2 (Almac Discovery Limited, priority 2013, dated 2017).

T1 sequence (P30291 whole entry): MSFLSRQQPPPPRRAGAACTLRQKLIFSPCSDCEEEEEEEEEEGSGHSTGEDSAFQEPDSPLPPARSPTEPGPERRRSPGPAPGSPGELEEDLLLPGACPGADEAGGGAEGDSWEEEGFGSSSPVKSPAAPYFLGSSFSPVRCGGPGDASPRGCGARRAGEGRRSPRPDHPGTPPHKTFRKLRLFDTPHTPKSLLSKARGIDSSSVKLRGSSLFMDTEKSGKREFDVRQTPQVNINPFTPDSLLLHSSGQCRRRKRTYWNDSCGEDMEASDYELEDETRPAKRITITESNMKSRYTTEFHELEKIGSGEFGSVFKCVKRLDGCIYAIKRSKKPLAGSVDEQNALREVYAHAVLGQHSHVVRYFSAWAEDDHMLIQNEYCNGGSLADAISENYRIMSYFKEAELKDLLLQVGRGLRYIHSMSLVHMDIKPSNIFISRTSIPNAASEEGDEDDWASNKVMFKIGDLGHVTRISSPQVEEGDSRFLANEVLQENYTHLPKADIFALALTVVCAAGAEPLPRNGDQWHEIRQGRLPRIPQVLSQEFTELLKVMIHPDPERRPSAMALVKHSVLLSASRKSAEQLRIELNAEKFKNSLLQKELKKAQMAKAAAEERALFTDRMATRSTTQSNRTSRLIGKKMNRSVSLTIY

A word on the IC50: it is the point on the concentration scale where inhibition reaches its midpoint. With `COCc1cc(Nc2ncc3c(n2)N(C)CN(c2c(Cl)cccc2Cl)C3=O)ccc1N1CCNCC1` [Example 31, 3-(2,6-dichlorophenyl)-7-((3-(methoxymethyl)-4-(piperazin-1-yl)phenyl)amino)-1-methyl-2,3-dihydropyrimido[4,5-d]pyrimidin-4(1H)-one], at Wee-1 kinase, the IC50 was 10 to 100 nM. Further, the EC50 in series [1] was in the range of 100 to 1000 nM. For the same compound, in series [2], the microsomal CLint at 1 μM was ≤ 15 µL/min/mg.

`Cc1cc(Nc2ncc3c(n2)N(C)CN(c2c(Cl)cccc2Cl)C3=O)ccc1C1CCNCC1` [Example 18, 3-(2,6-Dichlorophenyl)-1-methyl-7-((3-methyl-4-(piperidin-4-yl)phenyl)amino)-2,3-dihydropyrimido[4,5-d]pyrimidin-4(1H)-one]: the IC50 on Wee-1 kinase was ≤ 10 nM. Further, in series [1], the EC50 lay in the range of 100 to 1000 nM. Further, the microsomal CLint at 1 μM in series [2] is ≤ 15 µL/min/mg.

Regarding `CN1CN(c2c(Cl)cccc2Cl)C(=O)c2cnc(Nc3ccc(N4CC5CCC(C4)N5C)c(CO)c3)nc21` [Example 86, 3-(2,6-dichlorophenyl)-7-((3-(hydroxymethyl)-4-(8-methyl-3,8-diazabicyclo[3.2.1]octan-3-yl)phenyl)amino)-1-methyl-2,3-dihydropyrimido[4,5-d]pyrimidin-4(1H)-one], at Wee-1 kinase, the IC50 was ≤ 10 nM. Besides, in series [1], the EC50 lay in the range of 100 to 1000 nM. For the same compound, in series [2], the microsomal CLint at 1 μM is ≤ 15 µL/min/mg.

Take `CN1CN(c2c(Cl)cccc2Cl)C(=O)c2cnc(Nc3ccc(N4CCNCC4)cc3)nc21` [Example 1, 3-(2,6-Dichlorophenyl)-1-methyl-7-((4-(piperazin-1-yl)phenyl)amino)-2,3-dihydropyrimido[4,5-d]pyrimidin-4(1H)-one]: the IC50 on Wee-1 kinase was ≤ 10 nM. Further, the EC50 in series [1] was 100 to 1000 nM. Also, in series [2], the microsomal CLint at 1 μM was 15 to 50 µL/min/mg.

Consider `COc1cc(Nc2ncc3c(n2)N(C)CN(c2c(Cl)cccc2Cl)C3=O)ccc1N1CCNCC1` [Example 3, 3-(2,6-Dichlorophenyl)-7-((3-methoxy-4-(piperazin-1-yl)phenyl)amino)-1-methyl-2,3-dihydropyrimido[4,5-d]pyrimidin-4(1H)-one], for which, at Wee-1 kinase, the IC50 was ≤ 10 nM. In series [1], the EC50 was 100 to 1000 nM. Further, the microsomal CLint at 1 μM in series [2] was 15 to 50 µL/min/mg.

On to `CN1CN(c2c(Cl)cccc2Cl)C(=O)c2cnc(Nc3ccc(N4CC5CCC(C4)N5)cc3)nc21` [Example 74, 7-((4-(3,8-diazabicyclo[3.2.1]octan-3-yl)phenyl)amino)-3-(2,6-dichlorophenyl)-1-methyl-2,3-dihydropyrimido [4,5-d]pyrimidin-4(1H)-one], for which the IC50 on Wee-1 kinase was in the range of 10 to 100 nM. In addition, the EC50 in series [1] lay in the range of 100 to 1000 nM. For the same compound, in series [2], the microsomal CLint at 1 μM was ≤ 15 µL/min/mg.

Take `CC(C)N1CCN(c2ccc(Nc3ncc4c(n3)N(C)CN(c3c(Cl)cccc3Cl)C4=O)cc2CO)CC1` [Example 21, 3-(2,6-Dichlorophenyl)-7-((3-(hydroxymethyl)-4-(4-isopropylpiperazin-1-yl)phenyl)amino)-1-methyl-2,3-dihydropyrimido[4,5-d]pyrimidin-4(1H)-one]: the IC50 at Wee-1 kinase is 10 to 100 nM. The EC50 in series [1] lay within 100 to 1000 nM. Moreover, in series [2], the microsomal CLint at 1 μM was 15 to 50 µL/min/mg.

Turning to `CN1CN(c2c(F)cccc2Cl)C(=O)c2cnc(Nc3ccc(N4CCNCC4)cc3)nc21` [Example 25, 3-(2-Chloro-6-fluorophenyl)-1-methyl-7-((4-(piperazin-1-yl)phenyl)amino)-2,3-dihydropyrimido[4,5-d]pyrimidin-4(1H)-one], the 50% inhibitory concentration (IC50) on Wee-1 kinase lay in the range of 10 to 100 nM. The EC50 in series [1] fell in the range of 100 to 1000 nM. Also, the microsomal CLint at 1 μM in series [2] was ≤ 15 µL/min/mg.
